Data on eight molecules can be found in patent US7575910B2, “Method for producing L-fuculose and method for producing L-fucose” (priority 2004, dated 2009).

For orientation: Km means the concentration of substrate that gives half-maximal velocity.

Series [1] concerns the target T1, FcDH (L-fuculose-producing L-fucitol dehydrogenase) (Gluconobacter thailandicus, UniProt A0ABQ0IZX0).
T1 sequence (A0ABQ0IZX0 1-257): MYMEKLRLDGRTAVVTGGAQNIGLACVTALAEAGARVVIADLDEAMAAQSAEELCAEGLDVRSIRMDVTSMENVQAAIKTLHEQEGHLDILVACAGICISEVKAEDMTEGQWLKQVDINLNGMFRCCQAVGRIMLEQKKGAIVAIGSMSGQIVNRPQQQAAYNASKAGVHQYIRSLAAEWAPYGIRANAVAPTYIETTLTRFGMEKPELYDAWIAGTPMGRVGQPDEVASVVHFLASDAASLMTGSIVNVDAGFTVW
Description: Substrate specificity of purified FcDH (kcat, Km by Lineweaver-Burk plot). It counts as biochemical, Gluconobacter oxydans IFO 3255. The settings on record: FIG. 12. On the procedure:
(§1) The measurement was started when NAD was added. […] The measurement was performed consecutively three times.
(§2) Values of kcat and Km for each substrate were obtained by measuring the initial rate of the reaction with various substrate concentrations and drawing a Lineweaver-Burk plot of the results.
(§3) Lineweaver-Burk plots of the results in (A) and (B) are shown in FIG. 12 (C) and (D), respectively. The Km and kcat values were calculated from the range in which substrate inhibition was not observed, i.e., from a straight line represented by a broken line in FIG. 12 (C) and (D).

Series [2] addresses T2, FcDH (Gluconobacter thailandicus, UniProt A0ABQ0IZX0). Description: Oxidation products of substrates by purified FcDH, HPLC. The format is biochemical, Gluconobacter oxydans IFO 3255. The settings on record: 0.5 g/dl substrate, NOX, catalase, 30° C., 16 hours. On the procedure: Among the substrates recognized by FcDH, the oxidation product of L-fucitol is L-fuculose, and the oxidation products of the other substrates were examined. The substrates used were D-arabitol, D-mannitol and D-sorbitol. A reaction solution containing 0.5 g/dl of the substrate, 50 mM Gly-NaOH (pH 9.5), 1 mM NAD, 30 mM FAD, 5 mM MgCl2, 0.6 U/ml purified FcDH, 0.2 U/ml NOX, and 0.1 mg/ml catalase was reacted at 30° C. for 16 hours, and analyzed by HPLC (FIG. 13).

A further series concerns the target NOX (NADH oxidase) (Gluconobacter thailandicus, UniProt A0ABQ0IUG6). Description: NOX activity: NADH/NADPH and flavin coenzyme specificity. Particulars: flavin 0 to 300 μM, FIG. 19. The format is biochemical, Gluconobacter oxydans IFO 3255. On the procedure:
The change in absorbance in the first minute was taken as an initial rate, and the activity was calculated therefrom. The experimental group without the enzyme source was used as a blank. […] The measurement was taken three consecutive times. Their mean value was taken and is shown in the figure with the standard deviation.
The concentration of flavin in the reaction solution was 0 to 300 μM, and the others were adjusted to standard conditions.
The Km value for the substrate was calculated by measuring the activity with a variety of substrate concentrations and drawing a Lineweaver-Burk plot of the results.

The test system of series [3] is NADH oxidase activity in cell free extract of G. oxydans IFO 3255 sldA:Kmr mutant strain. Description: NADH oxidation activity in acetobacterium cell-free extract. It counts as biochemical, Gluconobacter oxydans IFO 3255 sldA:Kmr. Particulars: pH 8.0, 0.03 mM FAD. The source says: The group without the extract was used as a control.
Series [4] deals with L-fucitol dehydrogenase in cell free extract of G. oxydans IFO 3255 sldA:Kmr mutant strain. Briefly: NAD(P)-dependent L-fucitol oxidation activity in cell free extract. The format is biochemical, Gluconobacter oxydans IFO 3255 sldA:Kmr. On the procedure: Subsequently, 1 ml of the medium was added to 50 ml of the same liquid medium, and cultured at 30° C. for 18 hours using a 500 ml Sakaguchi flask. The microbial cells were collected by centrifuging this medium, washed with 9 g/l of NaCl, and sonicated with 200 W for 10 minutes to yield the disrupted microbial cells. These cells were further centrifuged at 15,000 g for 15 minutes to yield the supernatant, which was then used as a cell-free extract. […] The experiment was also performed without L-fucitol as the control.

Series [5] addresses T2, FcDH. Briefly: NAD and NADP specificity of FcDH. It counts as biochemical, Gluconobacter oxydans IFO 3255. The settings on record: data not shown. On the procedure: The measurement was started when NAD was added. The change in absorbance in the first minute was taken as the initial rate, and the activity was calculated therefrom. […] The measurement was performed consecutively three times. Their mean value was taken and is shown in the figure with the standard deviation.
Since FcDH uses NAD as a coenzyme, the availability of NAD and NADP was measured. The activity was measured by adding NAD or NADP at various concentrations under standard conditions. The Km value for each coenzyme was calculated by drawing a Lineweaver-Burk plot of the results (FIG. 14 (B)).

Substrate in series [6]: NC(=O)c1ccc[n+]([C@@H]2O[C@H](COP(=O)([O-])OP(=O)(O)OC[C@H]3O[C@@H](n4cnc5c(N)ncnc54)[C@H](O)[C@@H]3O)[C@@H](O)[C@H]2O)c1
Description: NAD and NADP specificity of FcDH. The format is biochemical, Gluconobacter oxydans IFO 3255. Particulars: other: FcDH, Lineweaver-Burk plot, FIG. 14; pH 9.5; 30.0 °C.

Substrate in series [7]: C[C@H](O)[C@@H](O)[C@@H](O)[C@H](O)CO
Description: purified protein, by the assay type. The settings on record: other: purified FcDH, substrate; Lineweaver-Burk plot; pH 9.5; 30.0 °C.

Substrate in series [8]: OC[C@@H](O)[C@H](O)[C@@H](O)CO
Briefly: purified protein, by the assay type. The settings on record: other: purified FcDH, substrate; Lineweaver-Burk plot; pH 9.5; 30.0 °C.

Substrate in series [9]: OC[C@@H](O)[C@@H](O)[C@@H](O)CO
Briefly: purified protein, by the assay type. Particulars: other: purified FcDH, substrate; Lineweaver-Burk plot; pH 9.5; 30.0 °C.

Substrate in series [10]: OC[C@@H](O)C(O)[C@H](O)CO
Description: purified protein, by the assay type. The settings on record: other: purified FcDH, substrate; Lineweaver-Burk plot; pH 9.5; 30.0 °C.

Substrate in series [11]: OC[C@@H](O)[C@@H](O)[C@H](O)[C@@H](O)CO
Briefly: Substrate specificity of purified FcDH (kcat, Km by Lineweaver-Burk plot). It counts as biochemical, Gluconobacter oxydans IFO 3255. The settings on record: other: purified FcDH, pH 9.5, 30.0 °C. On the procedure: as §1, §2, §3

Substrate in series [12]: OC[C@@H](O)[C@@H](O)[C@H](O)[C@H](O)CO
The description is as above. Particulars: other: purified FcDH, pH 9.5, 30.0 °C. It counts as biochemical, Gluconobacter oxydans IFO 3255. On the procedure:
as §1, §2, §3

Substrate in series [13]: OC[C@@H](O)[C@H](O)[C@H](O)[C@@H](O)CO
The series is described as above. The format is biochemical, Gluconobacter oxydans IFO 3255. The settings on record: other: purified FcDH, pH 9.5, 30.0 °C. On the procedure: as §1, §2, §3

Sequence of NOX (NADH oxidase) (A0ABQ0IUG6 entry or part of it): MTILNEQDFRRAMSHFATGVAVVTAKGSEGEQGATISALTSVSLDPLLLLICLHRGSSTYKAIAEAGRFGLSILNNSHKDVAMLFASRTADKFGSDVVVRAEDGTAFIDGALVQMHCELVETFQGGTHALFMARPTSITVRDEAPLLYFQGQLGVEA

Consider `OC[C@@H](O)C(O)[C@H](O)CO` [D-ARABITOL, D-arabitol], for which the “substrate concentration at which a reduction of the specific activity (inhibition by the substrate) was observed” value in series [1] is at least 5 mM. The “oxidation product identified by HPLC” value at FcDH [2] was “D-ribulose and D-xylulose”.
As to `OC[C@@H](O)[C@@H](O)[C@H](O)[C@H](O)CO` [D-MANNITOL, D-mannitol], at FcDH [2], the “oxidation product identified by HPLC” value was “D-fructose”.
The same measure, in the same setting: under `OC[C@@H](O)[C@@H](O)[C@H](O)[C@@H](O)CO` [D-SORBITOL, D-sorbitol] stands “L-sorbose”.
Regarding `Cc1cc2nc3c(=O)[nH]c(=O)nc-3n(C[C@H](O)[C@H](O)[C@H](O)COP(=O)(O)OP(=O)(O)OC[C@H]3O[C@@H](n4cnc5c(N)ncnc54)[C@H](O)[C@@H]3O)c2cc1C` [FAD], the “NOX activation effect of flavin coenzyme” value at NOX (NADH oxidase) was “NOX activation effect was observed”. In series [3], the “effect of FAD addition on NADH oxidation activity” value is given as “facilitated this activity”.
`C[C@H](O)[C@@H](O)[C@@H](O)[C@H](O)CO` [L-FUCITOL, L-fucitol]: the “substrate concentration at which a reduction of the specific activity (inhibition by the substrate) was observed” value in series [1] is given as at least 100 mM. The Dehydrogenase activity is recorded as 3.1 ×10^−3 U/mg in [4] (coenzyme NAD, pH 6.0); 18.4 ×10^−3 U/mg in series [4] (coenzyme NAD, pH 8.8); 0.0 ×10^−3 U/mg in [4] (coenzyme NADP, pH 6.0); 1.9 ×10^−3 U/mg in series [4] (coenzyme NADP, pH 8.8).
Turning to `NC(=O)c1ccc[n+]([C@H]2O[C@@H](COP(=O)([O-])OP(=O)(O)OC[C@H]3O[C@@H](n4cnc5c(N)ncnc54)[C@H](OP(=O)(O)O)[C@@H]3O)[C@H](O)[C@@H]2O)c1` [NADP], the “FcDH activity with NADP as the coenzyme” value on FcDH [5] is reported as “no significant activity”.

B1: FcDH (Gluconobacter thailandicus NBRC 3257) (protein)
chain: T1 sequence (A0ABQ0IZX0 1-257)
Turning to B1, in series [6], the Michaelis-Menten constant (Km) is 0.20 mM.

B2: FcDH (L-fuculose-producing L-fucitol dehydrogenase) (Gluconobacter thailandicus NBRC 3257) (protein)
chain: T1 sequence (A0ABQ0IZX0 1-257)
On to B2, for which the Km stood at 31.9 mM in series [7]; 31.9 mM in series [8]; 20.4 mM in series [9]; 1.3 mM in [10]; 22.4 mM in [11]; 30.2 mM in [12]. Besides, the Km in series [13] is 30.5 mM.
